Experimental data: patent publication US12129266B2, “Substituted pyrazolo[1,5-a]pyridine compound, composition containing the same and use thereof” (Shenzhen TargetRx, Inc., priority 2018, dated 2024)

Experiments:
[1] = Metabolic stability evaluation, liver microsome assay (HLM); type: in vitro ADME; settings: pH 7.4, human liver microsomes 0.5 mg/mL, compound 1 μM, NADPH, 37° C.; for half-life at 1 μM: read-out: HLM t1/2
Experimental: (§1) Microsome assay: human liver microsomes (HLM): 0.5 mg/mL, Xenotech; rat liver microsomes (RLM): 0.5 mg/mL, Xenotech; mice liver microsomes (MLM): 0.5 mg/mL, Xenotech; coenzyme (NADPH/NADH): 1 mM, Sigma Life Science; magnesium chloride: 5 mM, 100 mM phosphate buffer (pH is 7.4).
(§2) Preparation of stock solution: a certain amount of powder of the example compound and the reference compound were accurately weighed, and dissolved to 5 mM with DMSO, respectively.
(§3) Preparation of phosphate buffer (100 mM, pH7.4): Pre-formulated 150 mL 0.5 M potassium dihydrogen phosphate and 700 mL 0.5 M dipotassium hydrogen phosphate solution were mixed, then the pH of the mixture was adjusted to 7.4 with 0.5 M dipotassium hydrogen phosphate solution. Before use, 5-fold dilution was made with ultra-pure water, and magnesium chloride was added to afford phosphate buffer (100 mM), which containing 100 mM potassium phosphate, 3.3 mM magnesium chloride, pH is 7.4.
(§4) NADPH regeneration system solution (containing 6.5 mM NADP, 16.5 mM G-6-P, 3 U/mL G-6-P D, 3.3 mM magnesium chloride) was prepared and placed on wet ice before use.
(§5) Preparation of stop solution: Acetonitrile solution containing 50 ng/mL propranolol hydrochloride and 200 ng/mL tolbutamide (internal standard). 25057.5 μL phosphate buffer (pH 7.4) was taken into a 50 mL centrifuge tube, and 812.5 μL human liver microsome was added, mixed well to afford liver microsome diluent with a protein concentration of 0.625 mg/mL. 25057.5 μL phosphate buffer (pH 7.4) was taken into a 50 mL centrifuge tube, and 812.5 μL SD rat liver microsome was added, respectively, mixed well to afford liver microsome diluent with a protein concentration of 0.625 mg/mL. 25057.5 μL phosphate buffer (pH 7.4) was taken into a 50 mL centrifuge tube, and 812.5 μL mice liver microsome was added, respectively, mixed well to afford liver microsome diluent with a protein concentration of 0.625 mg/mL.
(§6) Incubation of the sample: The stock solutions of the corresponding compounds were diluted to 0.25 mM with an aqueous solution containing 70% acetonitrile as working solutions for use. 398 μL of human liver microsome or rat liver microsome or mice liver microsome diluent was taken and added to a 96-well incubation plate (N=2), respectively, and 2 μL of 0.25 mM working solution was then added respectively, and mixed well.
(§7) Determination of metabolic stability: 300 μL of pre-chilled stop solution was added to each well of a 96-well deep well plate and the plate was placed on ice as a stop plate. The 96-well incubation plate and NADPH regeneration system were placed in a 37° C. water bath box, shook at 100 rpm, and pre-incubated for 5 min. 80 μL of incubation solution was taken from each well of the incubation plate and added to the stop plate, mixed well, and 20 μL of NADPH regeneration system solution was supplemented, the resulted solution was considered as sample at 0 min. Then 80 μL of NADPH regeneration system solution was added to each well of the incubation plate to start the reaction and started timing. The reaction concentration of the corresponding compound is 1 μM, and the protein concentration is 0.5 mg/mL. 100 μL reaction solution was taken at 10, 30, 90 min of reaction, respectively, and added into stop plate, the reaction was stopped with 3 min vortex. The stop plate was centrifuged at 5000×g, 4° C. for 10 min. 100 μL of supernatant was taken to a 96-well plate where 100 μL of distilled water was added in advance, mixed well, sample analysis was subjected by LC-MS/MS.
(§8) Data analysis: LC-MS/MS system was used to detect peak area of corresponding compound and internal standard, peak area ratio of compound and internal standard was calculated.
(§9) [formula] t1/2(min); CLint(μL/min/mg).

[2] = Metabolic stability evaluation, liver microsome assay (MLM); type: in vitro ADME; settings: mouse, mouse liver microsomes, pH 7.4, mice liver microsomes 0.5 mg/mL, compound 1 μM, NADPH, 37° C.; for half-life at 1 μM: read-out: MLM t1/2
Experimental: as §1, §2, §3, §4, §5, §6, §7, §8, §9

[3] = Metabolic stability evaluation, liver microsome assay (RLM); type: in vitro ADME, SD rat; settings: Sprague-Dawley, pH 7.4, rat liver microsomes 0.5 mg/mL, compound 1 μM, NADPH, 37° C.; for half-life at 1 μM: read-out: RLM t1/2
Experimental: as §1, §2, §3, §4, §5, §6, §7, §8, §9

Ba/F3 parental = test: cells; settings: Mus musculus, BaF3, 72 h, read-out: IC50 (nM) Ba/F3 parental
Ba/F3 KIF5B-RET^V804M = test: Cytotoxicity assay (CellTiter-Glo), Ba/F3 KIF5B-RET V804M; type: cell-based; settings: Mus musculus, BaF3; cell viability, 72 hours, CTG
Ba/F3 KIF5B-RET = test: Cytotoxicity assay (CellTiter-Glo), Ba/F3 KIF5B-RET; type: cell-based; settings: Mus musculus, BaF3; cell viability, 72 hours, CTG

SMILES | microsomal CLint at 1 μM [1] [µL/min/mg] | half-life at 1 μM [1] [min] | microsomal CLint at 1 μM [2] [µL/min/mg] | half-life at 1 μM [2] [min] | microsomal CLint at 1 μM [3] [µL/min/mg] | half-life at 1 μM [3] [min] | IC50 (Ba/F3 parental) [nM] | IC50 (Ba/F3 KIF5B-RET^V804M) [nM] | IC50 (Ba/F3 KIF5B-RET) [nM]
[2H]C([2H])([2H])Oc1ccc(CN2C3CC2CN(c2ccc(-c4cc(-c5cnn(C)c5)cn5ncc(C#N)c45)cn2)C3)cn1 [Example 1, 4-(6-(6-((6-(methoxy-d3)pyridin-3-yl)methyl)-3,6-diazabicyclo[3.1.1]heptan-3-yl)pyridin-3-yl)-6-(1-methyl-1H-pyrazol-4-yl)pyrazolo[1,5-a]pyridine-3-carbonitrile] | 87.5 | 15.8 | 73.2 | 18.9 | 51.5 | 26.9 |  |  | 
[2H]C([2H])(c1ccc(OC)nc1)N1C2CC1CN(c1ccc(-c3cc(-c4cnn(C)c4)cn4ncc(C#N)c34)cn1)C2 [Example 2, 4-(6-(6-((6-methoxypyridin-3-yl)methyl-d2)-3,6-diazabicyclo[3.1.1]heptan-3-yl)pyridin-3-yl)-6-(1-methyl-1H-pyrazol-4-yl)pyrazolo[1,5-a]pyridine-3-carbonitrile] | 105 | 13.2 | 78.3 | 17.7 | 35.1 | 39.5 |  |  | 
[2H]C([2H])([2H])Oc1ccc(C([2H])([2H])N2C3CC2CN(c2ccc(-c4cc(-c5cnn(C)c5)cn5ncc(C#N)c45)cn2)C3)cn1 [Example 3, 4-(6-(6-((6-(methoxy-d3)pyridin-3-yl)methyl-d2)-3,6-diazabicyclo[3.1.1]heptan-3-yl)pyridin-3-yl)-6-(1-methyl-1H-pyrazol-4-yl)pyrazolo[1,5-a]pyridine-3-carbonitrile] | 85.6 | 16.2 | 68.8 | 20.2 | 55.3 | 25.1 |  |  | 
[2H]C([2H])([2H])Oc1ccc(CN2C3CC2CN(c2ccc(-c4cc(-c5cnn(C([2H])([2H])[2H])c5)cn5ncc(C#N)c45)cn2)C3)cn1 [Example 4, 4-(6-(6-((6-(methoxy-d3)pyridin-3-yl)methyl)-3,6-diazabicyclo[3.1.1]heptan-3-yl)pyridin-3-yl)-6-(1-(methyl-d3)-1H-pyrazol-4-yl)pyrazolo[1,5-a]pyridine-3-carbonitrile] | 97.9 | 14.2 | 63.5 | 21.8 | 49.1 | 28.2 |  |  | 
[2H]C([2H])(c1ccc(OC)nc1)N1C2CC1CN(c1ccc(-c3cc(-c4cnn(C([2H])([2H])[2H])c4)cn4ncc(C#N)c34)cn1)C2 [Example 5, 4-(6-(6-((6-methoxypyridin-3-yl)methyl-d2)-3,6-diazabicyclo[3.1.1]heptan-3-yl)pyridin-3-yl)-6-(1-(methyl-d3)-1H-pyrazol-4-yl)pyrazolo[1,5-a]pyridine-3-carbonitrile] | 83.2 | 16.7 | 75.8 | 18.3 | 37.9 | 36.6 |  |  | 
[2H]C([2H])([2H])Oc1ccc(C([2H])([2H])N2C3CC2CN(c2ccc(-c4cc(-c5cnn(C([2H])([2H])[2H])c5)cn5ncc(C#N)c45)cn2)C3)cn1 [Example 6, 4-(6-(6-((6-(methoxy-d3)pyridin-3-yl)methyl-d2)-3,6-diazabicyclo[3.1.1]heptan-3-yl)pyridin-3-yl)-6-(1-(methyl-d3)-1H-pyrazol-4-yl)pyrazolo[1,5-a]pyridine-3-carbonitrile] | 112 | 12.4 | 65 | 21.3 | 47.3 | 29.3 |  |  | 
[2H]C([2H])([2H])n1cc(-c2cc(-c3ccc(N4CC5CC(C4)N5Cc4ccc(OC)nc4)nc3)c3c(C#N)cnn3c2)cn1 [Example 7, 4-(6-(6-((6-methoxypyridin-3-yl)methyl)-3,6-diazabicyclo[3.1.1]heptan-3-yl)pyridin-3-yl)-6-(1-(methyl-d3)-1H-pyrazol-4-yl)pyrazolo[1,5-a]pyridine-3-carbonitrile] | 11.1 | 124 | 76 | 18.2 | 11.3 | 122 |  |  | 
[2H]C([2H])(c1ccc(OC)nc1)N1C2CC1CN(c1ccc(-c3cc(OC[C@H]4CNCCO4)cn4ncc(C#N)c34)cn1)C2 [Example 8] | 10.6 | 131 | 5.8 | 237 | 5.3 | 263 | 3360 |  | 
[2H]C([2H])(c1ccc(OC)nc1)N1C2CC1CN(c1ccc(-c3cc(OCC(C)(C)O)cn4ncc(C#N)c34)cn1)C2 [Example 11, 6-(2-hydroxy-2-methylpropoxy)-4-(6-(6-((6-methoxypyridin-3-yl)methyl-d2)-3,6-diazabicyclo[3.1.1]heptan-3-yl)pyridin-3-yl)pyrazolo[1,5-a]pyridine-3-carbonitrile] | 96.2 | 14.4 | 44.8 | 30.9 | 11.7 | 118 | 3510 | 40.5 | 19.1
[2H]C([2H])([2H])Oc1ccc(CN2C3CC2CN(c2ccc(-c4cc(OCC(C)(C)O)cn5ncc(C#N)c45)cn2)C3)cn1 [Example 12, 6-(2-hydroxy-2-methylpropoxy)-4-(6-(6-((6-(methoxy-d3)pyridin-3-yl)methyl)-3,6-diazabicyclo[3.1.1]heptan-3-yl)pyridin-3-yl)pyrazolo[1,5-a]pyridine-3-carbonitrile] | 93.1 | 14.9 | 44.9 | 30.8 | 10.1 | 137 | 5930 | 45.2 | 16
[2H]C([2H])([2H])Oc1ccc(C([2H])([2H])N2C3CC2CN(c2ccc(-c4cc(OCC(C)(C)O)cn5ncc(C#N)c45)cn2)C3)cn1 [Example 13, 6-(2-hydroxy-2-methylpropoxy)-4-(6-(6-((6-(methoxy-d3)pyridin-3-yl)methyl-d2)-3,6-diazabicyclo[3.1.1]heptan-3-yl)pyridin-3-yl)pyrazolo[1,5-a]pyridine-3-carbonitrile] | 92.2 | 15 | 42.8 | 32.4 | 10.8 | 128 | > 10000 | 90 | 23.5
